Source: paper PMC8230073, “The Role of Anthocyanins, Deoxyanthocyanins and Pyranoanthocyanins on the Modulation of Tyrosinase Activity: An In Vitro and In Silico Approach” (International Journal of Molecular Sciences, 2021)
Read-outs that look alike come from different tables or passages of the source.

Assays:
[1] = target: T1, mushroom tyrosinase (Agaricus bisporus, UniProt C7FF04); assay: Mushroom tyrosinase inhibition assay (L-DOPA oxidation to dopachrome); assay type: biochemical
T1 construct: purchased Sigma Aldrich T3824-250 KU
Experimental: Both were dissolved in 20 mM phosphate buffer solution, pH 6.8. First, 20 µL from a freshly prepared stock solution of mushroom tyrosinase (270 U/mL) and 75 µL of test compounds stock solutions (20 mM PBS, pH 6.8) were mixed and pre-incubated at 37 °C for 15 min. Then, 30 µL of 6 mM L-DOPA was added to the reaction mixture, followed by an incubation of 20 min at 37 °C. During this reaction, L-DOPA is converted to dopachrome (a precursor of melanin), visually detected by the change of color from colorless to orange/brown, resulting in an absorbance increase, recorded spectrophotometrically at 475 nm on a Flex Station 3 Multi-Mode Microplate Reader (Molecular Devices). The inhibition rate was calculated as follows:(1) % Tyrosinase inhibition=(1−A−B/C−D)×100 where A and B represent the final and initial optical densities of the reaction in the presence of the tested compounds, while C and D represent the final and initial optical densities of the reaction in their absence, respectively. […] Experiments were carried out in triplicate and repeated at least 3 times.

[2] = pH 7.4, cited from earlier work; for fraction in quinoidal base form: 7-A^− and 8-A, ref [20],[22]
[3] = target: T1, mushroom tyrosinase; assay: Kinetic analysis of tyrosinase inhibition; assay type: biochemical
Description: GraphPad Prism 8.2.1 was used to fit the experimental data to these four models, all of them compared with each other. Akaike’s Information Criteria (AICc) approach was used to compare the fit of competitive, uncompetitive, and noncompetitive models, while extra sum-of-squares F test was used to compare the mixed model with the remaining three models, as they are considered to be special cases of the mixed model general equation.
Additionally, the mixed model fitting includes an extra parameter, the alpha (α) value, which represents a useful quantitative indicator of the mechanism of inhibition.
Initial velocity of the enzymatic reaction, V0, was determined from the slope of the curve at the initial phase of the reaction, in the presence of increasing concentrations of each compound (25–100 μM) and L-dopa (0.10–1.0 mM) and then plotted as a function of the corresponding substrate concentration, [S]. GraphPad Prism 8.2.1 program was used to fit the obtained data into the Michaelis–Menten model and to determine the kinetic parameters Vmax and KM (maximal reaction velocity and Michaelis–Menten constant, respectively).

[4] = 50 µM compound, substrate L-DOPA, pH 6.8, 37 °C, mean ± SEM, read-out: % mTYR Inhibition at 50 µM

T1 sequence (C7FF04 1-392): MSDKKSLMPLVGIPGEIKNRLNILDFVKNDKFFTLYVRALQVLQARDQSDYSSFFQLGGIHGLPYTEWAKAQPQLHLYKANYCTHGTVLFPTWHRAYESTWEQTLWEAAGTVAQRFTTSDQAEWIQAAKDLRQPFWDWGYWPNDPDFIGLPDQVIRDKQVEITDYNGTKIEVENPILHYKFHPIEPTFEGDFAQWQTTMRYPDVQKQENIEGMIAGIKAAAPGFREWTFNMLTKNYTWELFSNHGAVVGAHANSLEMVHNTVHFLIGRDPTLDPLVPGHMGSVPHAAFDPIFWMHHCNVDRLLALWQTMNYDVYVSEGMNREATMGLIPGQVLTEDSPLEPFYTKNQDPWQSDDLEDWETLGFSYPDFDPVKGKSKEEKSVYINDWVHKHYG

SMILES: O=C(O)c1cc2c(O[C@@H]3O[C@H](CO)[C@@H](O)[C@H](O)[C@H]3O)c(-c3ccc(O)c(O)c3)oc3cc(=O)cc(o1)c32 [Compound 5, carboxypyranocyanidin-3-O-glucoside]
- inhibition at 50 µM [1, 4]: 22.1 ± 0.962%
- inhibition at 200 µM ([1]; 200 μM compound, L-DOPA oxidation (Figure 3), read-out: inhibition rate at 200 μM): ~40%
- fraction under the form A^2− ([2]; ref [20],[21]): ~100%

SMILES: Oc1cc(O)c2ccc(-c3ccc(O)c(O)c3)[o+]c2c1 [Compound 1, luteolinidin]
- IC50 [1]: 39.2 ± 2.71 µM
- inhibition at 50 µM ([1]; pH 6.8, read-out: % mTYR Inhibition at 50 µM): 58.5 ± 2.08%
- Ki [3]: 15.1 ± 1.18 µM
- Vmax ([3]; L-DOPA, inhibitor 25 μM): 45.8 µM/min
- Vmax ([3]; L-DOPA, inhibitor 50 μM): 45.8 µM/min
- Vmax ([3]; L-DOPA, inhibitor 75 μM): 45.8 µM/min
- Vmax ([3]; L-DOPA, inhibitor 100 μM): 45.8 µM/min
- α ([3]; alpha value from fitting of mixed model equation): 21.00
- Inhibition Type ([3]; diphenolase activity, L-DOPA, model comparison in GraphPad Prism): Competitive

SMILES: Cc1cc2c(O[C@@H]3O[C@H](CO)[C@@H](O)[C@H](O)[C@H]3O)c(-c3ccc(O)c(O)c3)oc3cc(=O)cc(o1)c32 [Compound 7, methylpyranocyanidin-3-O-glucoside]
- inhibition at 50 µM [1, 4]: 16.2 ± 1.14%
- fraction in quinoidal base form [2]: 80%

SMILES: COc1cc(-c2oc3cc(=O)cc4oc(C)cc(c2O[C@@H]2O[C@H](CO)[C@@H](O)[C@H](O)[C@H]2O)c43)cc(OC)c1O [Compound 8, methylpyranomalvidin-3-O-glucoside]
- inhibition at 50 µM [1, 4]: 9.74 ± 3.36%
- fraction in quinoidal base form [2]: 80%
